Measurements taken from US7714151B2, “Aminated isoflavonoid derivatives and uses thereof” (Novogen Research Pty Ltd, priority 2002, dated 2010).
Where two headings read alike, the source gives them in different places.

What was measured:
[1] = system: MDA-MB-468 (ER negative breast Ca); experiment: Cell cytotoxicity analysis (MTT), MDA-MB-468; assay type: cell-based; settings: Homo sapiens, 120 h, MDA-MB-468, five days
Source text: (§1) The method of Alley et al. (1988) was followed. Briefly, prior to cytotoxicity screening a growth curve was constructed for each tumour line to be screened to determine growth kinetics, optimal seeding density to yield logarithmic growth over five days, and the corresponding lag time. Spent culture medium was aspirated from a sub-confluent adherent monolayer culture (T-75), the cells trypsinised and resuspended in a minimal volume of culture medium. After counting cells, a 96-well plate was seeded at an appropriate density (100 μl) to yield optimal growth parameters and the plate was then incubated at 37° C. under 5% CO2. After the pre-determined lag-time the plate was treated with either vehicle (negative control) or serial dilutions of the test compound prepared in culture medium, and then incubated for a further five days. MTT (0.5 mg/ml) prepared in PBS was added to all wells and incubated at 37° C. for ˜3 hr. Spent medium was then carefully aspirated and DMSO (150 μt) was added to solubilise cells and the reduced formazan. Absorbance was then read on a SpectraMax plate reader at 570 nm and viable cells in treated plates were expressed as a percentage of cells in control plates.

[2] = system: testosterone-induced LNCaP proliferation; experiment: Androgen inhibition study: testosterone-induced LNCaP proliferation; assay type: cell-based, human; settings: for IC50: Homo sapiens, LNCaP; for fold better than Cpd. 1 at inhibiting testosterone-induced proliferation: relative to Cpd. 1
Experimental: The method of Negri-Cesi and Motta (1994) and Negri-Cesi et al. (1999) was followed. Briefly, LNCaP cells were cultured in RPMI supplemented with 10% fetal calf serum and 2 mM L-glutamine at 37° C. under 5% CO2. At day 0 a subconfluent LNCaP culture flask (80%) were harvested by trypsinisation, washed, resuspended in RPMI media completed with charcoal stripped fetal calf serum (RPMIi) and seeded into 12 well plates at 30,000 cells per well (15,000 cells/mL). The plates were cultured at 37° C. with 5% CO2 for 48 hours. On day 2, spent media was carefully aspirated from all plates and then replenished with 2 ml RPMIi containing either testosterone (0.5 pM) as positive control, testosterone plus finasteride (1 uM) as inhibitor control and vehicle as growth control (equivalent concentration of DMSO). Test plates were treated as described above; only serial dilutions of test compounds prepared in RPMIi were used. Concentrations of test compound were chosen based on their cytotoxicity profile as determined in the cell cytotoxicity analysis methods section above i.e. the top concentration used in the LNCaP proliferation assay was determined as the concentration at which cells first appear close to 100% viable along the cytotoxicity curve. This concentration was chosen to ensure that any inhibition of proliferation imparted by the test agent was due to the inhibition of 5′AR and not due to direct killing of the cells. It is important not to disturb cell monolayer during the addition of treatments. On days 5 and 8 the process followed on day 2 was repeated for all plates. On day 11 spent media was aspirated from all wells, cells were washed gently with PBS (500 μl), trypsinised and the cells in each well counted using a haemocytometer. The average cell count and standard deviation was calculated and the result expressed as the % inhibition of testosterone-induced proliferation in comparison with vehicle control.

[3] = system: PC3 (AR negative prostate Ca); experiment: Cell cytotoxicity analysis (MTT), PC3; assay type: cell-based; settings: Homo sapiens, 120 h, PC3, five days
Source text: as §1

[4] = biological target: T1, thromboxane synthase (Homo sapiens, UniProt P24557); experiment: Thromboxane synthase inhibition screening assay in LPS-stimulated monocytes (TXB2 radioimmunoassay); assay type: cell-based
T1 construct: endogenous in cells; host or cells: human peripheral blood monocytes (elutriated from buffy coat), LPS-stimulated
T1 sequence (P24557 1-533): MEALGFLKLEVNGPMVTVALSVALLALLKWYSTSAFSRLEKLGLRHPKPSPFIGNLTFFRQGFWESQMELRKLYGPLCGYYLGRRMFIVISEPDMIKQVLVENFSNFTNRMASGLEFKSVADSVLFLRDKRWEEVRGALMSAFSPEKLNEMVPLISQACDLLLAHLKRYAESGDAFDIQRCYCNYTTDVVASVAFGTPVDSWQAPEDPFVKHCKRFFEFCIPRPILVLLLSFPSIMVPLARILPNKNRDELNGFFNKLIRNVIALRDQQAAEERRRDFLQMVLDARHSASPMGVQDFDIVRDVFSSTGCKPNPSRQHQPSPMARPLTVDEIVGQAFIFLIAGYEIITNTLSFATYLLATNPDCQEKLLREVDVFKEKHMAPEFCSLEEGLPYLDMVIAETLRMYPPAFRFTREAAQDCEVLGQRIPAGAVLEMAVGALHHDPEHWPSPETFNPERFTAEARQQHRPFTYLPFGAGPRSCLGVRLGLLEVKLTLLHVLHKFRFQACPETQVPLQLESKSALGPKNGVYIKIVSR
Experimental: (§2) Human buffy coats were obtained from the Red Cross Blood Bank. Buffy coat (50 ml) was diluted 1:2 with sterile phosphate buffered saline (PBS), overlayed onto Lymphoprep density gradient medium and centrifuged at 800 g for 20 min. The mononuclear cell (MNC) layer was removed and washed with PBS and monocyte enriched cells were prepared from MNC by counter-current centrifugal elutriation. Monocytes were then resuspended in RPMI tissue culture medium with 10% foetal calf serum at 1.5×10^6 cells/ml. Test analogues were prepared in DMSO and incubated with monocytes at 37° for 30 min at either 10 or 100 μM. After the 30 min pre-incubation, bacterial lipopolysaccharide (LPS) was added (200 ng/ml) and cells were incubated for a further 18 h at 37° in 5% CO2. After centrifugation, cell-free supernatants were then removed and assayed for either prostaglandin or thromboxane production, as determined by radioimmunoassay. Because TXA2 is labile in aqueous medium, TXB2, the stable hydrolysis product of TXA2, was measured. For each dose (0, 10, 100 μM), incubations were performed in triplicate. Results are expressed as mean±SD, n=3. ANOVA followed by Newman-Keuls multiple comparisons test was used to examine differences between doses and the control values.

[5] = system: NCI-H460 (large cell lung Ca); experiment: Cell cytotoxicity analysis (MTT), NCI-H460; assay type: cell-based; settings: Homo sapiens
Source text: as §1

[6] = system: COX; experiment: COX inhibition screening assay in LPS-stimulated monocytes (prostaglandin radioimmunoassay); assay type: cell-based; settings: 10 μM, human monocytes
Experimental: as §2

[7] = system: LNCaP (AR positive Prostate Ca); experiment: Cell cytotoxicity analysis (MTT), LNCaP; assay type: cell-based; settings: Homo sapiens
Source text: as §1

[8] = system: DU145 (AR negative prostate Ca); experiment: Cell cytotoxicity analysis (MTT), DU145; assay type: cell-based; settings: Homo sapiens
Source text: as §1

[9] = system: all cell lines tested; experiment: Cell cytotoxicity analysis (MTT), statements over the cell lines tested; assay type: cell-based, human; settings: for overall cell killing activity against all cell lines tested: comparison of Cpd. 1, 2 and 3
Source text: as §1

[10] = read-out: IC50 inhibition of testosterone-induced LNCaP proliferation
[11] = read-out: IC50 inhibition of testosterone-induced proliferation
[12] = 120 h, NCI-H460, five days, MTT, read-out: Cytotoxicity NCI-H460 Avg.
[13] = 120 h, LNCaP, five days, MTT, read-out: Cytotoxicity LNCaP Avg.
[14] = 120 h, DU-145, five days, MTT, read-out: Cytotoxicity DU-145 Avg.
[15] = DU-145, read-out: IC50 against DU-145

Compound | IC50 [1] [µM] | IC50 [2, 10] [nM] | IC50 [2, 11] [nM] | IC50 [3] [µM] | inhibition at 10 µM [4] [%] | IC50 [5, 12] [µM] | inhibition of COX activity [6] [%] | IC50 [7, 13] [µM] | IC50 ([7]; read-out: IC50 against LNCaP) [µM] | IC50 [8, 14] [µM] | IC50 [8, 15] [µM] | IC50 ([9]; Homo sapiens, cell lines other than LNCaP and DU-145, read-out: Modest activity against the other cell lines tested) [µM] | IC50 ([2]; read-out: IC50 inhibition of testosterone-induced proliferation (nM)) [nM] | fold better than Cpd. 1 at inhibiting testosterone-induced proliferation [2] [fold] | overall cell killing activity against all cell lines tested [9] | IC50 ([5]; NCI-H460, read-out: activity against NCI-H460) [µM] | blocking of testosterone-induced proliferation ([2]; 1 μM, inhibitor control)
Oc1ccc(C2COc3cc(O)ccc3C2=NNc2ccccc2)cc1 (stereo not shown) [Cpd. 1] | 34.9 | 2250 | 2250 | 33.9 | 33 | 27.6 | 100 | 16.2 | 16.2 | 13.8 | 13.8 | > 20 | – | – | – | – | –
O=[N+]([O-])c1ccc(NN=C2c3ccc(O)cc3OCC2c2ccc(O)cc2)cc1 (stereo not shown) [Cpd. 2] | 26.1 | < 35 | – | 44.8 | 27 | 32.7 | 77 | 50.9 | – | 46 | – | – | < 37 | ~60 | lowest activity | – | –
Cc1ccc(NN=C2c3ccc(O)cc3OCC2c2ccc(O)cc2)cc1 (stereo not shown) [Cpd. 3] | 22.4 | 680 | 680 | 27.9 | 60 | – | 100 | 16.2 | 16.3 | 19.1 | 19.2 | – | – | 3 | best overall cell killing activity | 13.3 | –
CC(C)(C)NC(=O)[C@H]1CC[C@H]2[C@@H]3CC[C@H]4NC(=O)C=C[C@]4(C)[C@H]3CC[C@]12C [finasteride, reference compound] | – | – | – | – | – | – | – | – | – | – | – | – | – | – | – | – | potently blocked
